For assay [1], the system named is Rattus norvegicus. Put plainly: Agonistic activity against gastrin induced acid secretion in the anesthetized rats; No agonist activity at doses as high as 3 mg/kg. Type of assay: functional, organism-based. Set-up: dose 3 mg/kg.
The subject of assay [2] is Rattus norvegicus. Put plainly: Effective dose required to inhibit gastrin-induced acid secretion in the in situ perfused rat stomach (anesthetized rat). In kind it is functional.
The test system of assay [3] is Rattus norvegicus. Put plainly: Agonistic activity against gastrin induced acid secretion in the anesthetized rats at a dose of 3 mg/kg;*=1/4 of the agonistic activity. In kind it is functional, organism-based. Set-up: dose 3 mg/kg. Conditions: filed as partial agonist.
Assay [4] relates to Rattus norvegicus. Put plainly: Agonistic activity against gastrin induced acid secretion in the anesthetized rats at a dose of 3 mg/kg; **** indicate full activity of tetragastrin. Type of assay: functional, organism-based. Details: dose 3 mg/kg. As to conditions: filed as agonist.

SMILES strings stand for the structures. Activity calls are given as the source filed them. The rule behind the calls is not given here. Peptide text beside a SMILES is read from it. * marks the point of attachment. Boc = CC(C)(C)OC(=O)*

A word on the ED50: it is the dose at which the effect has come halfway, by size or by number of responders. A lower ED50 goes with an effect at a small dose. Regarding `CCCN(CCC)C(=O)C(CCC(=O)O)NC(=O)c1ccccc1` (configuration not stated) [PROGLUMIDE], the Agonist activity result in the assay with Rattus norvegicus [1] is “inactive”. In addition, the ED50 in the assay with Rattus norvegicus [2] came out at 350 µmol/kg. `CC(C)C[C@H](NC(=O)[C@@H](Cc1c[nH]c2ccccc12)NC(=O)OC(C)(C)C)C(=O)N[C@H](CC(=O)O)NC(=O)C(Cc1ccccc1)C(N)=O` (some centres not stated): the Agonist activity entry with Rattus norvegicus [3] is “Partial agonist”. Also, the ED50 in the assay on Rattus norvegicus [2] came out at 0.3 µmol/kg. `CC(C)C[C@H](NC(=O)[C@H](Cc1c[nH]c2ccccc12)NC(=O)OC(C)(C)C)C(=O)N[C@@H](CC(=O)O)C(=O)N[C@@H](Cc1ccccc1)C(N)=O` (Boc-WLDF-NH2): the Agonist activity result with Rattus norvegicus [4] was “Agonist”.

On to `CC(C)C[C@@H](NC(=O)[C@H](CC(=O)O)NC(=O)C(Cc1ccccc1)C(N)=O)NC(=O)[C@@H](Cc1c[nH]c2ccccc12)NC(=O)OC(C)(C)C` (some centres not stated), for which, in the assay on Rattus norvegicus [3], the Agonist activity entry was “Partial agonist”. In the assay with Rattus norvegicus [2], this molecule returned a 50% effective dose (ED50) of 0.15 µmol/kg.

For `CCCC[C@@H](NC(=O)[C@H](CC(=O)O)NC(=O)NCc1ccccc1)NC(=O)[C@@H](Cc1c[nH]c2ccccc12)NC(=O)OC(C)(C)C`, in the assay on Rattus norvegicus [3], the Agonist activity entry was “Partial agonist”. In the assay with Rattus norvegicus [2], this molecule showed a 50% effective dose (ED50) of 1.1 µmol/kg. On the same counts, the results for `CCCC[C@@H](NC(=O)[C@H](CC(=O)O)NC(=O)CCc1ccccc1)NC(=O)[C@@H](Cc1c[nH]c2ccccc12)NC(=O)OC(C)(C)C` are “Partial agonist” and 2.5 µmol/kg.

As for `CC(C)C[C@H](NC(=O)[C@@H](Cc1c[nH]c2ccccc12)NC(=O)OC(C)(C)C)C(=O)N[C@H](CC(=O)O)NC(=O)CCc1ccccc1`, the Agonist activity result in the assay with Rattus norvegicus [1] is “inactive”. Besides, the ED50 in the assay with Rattus norvegicus [2] turned out to be 0.15 µmol/kg.

`CC(C)C[C@H](NC(=O)[C@H](Cc1c[nH]c2ccccc12)NC(=O)OC(C)(C)C)C(=O)N[C@H](CC(=O)O)NC(=O)NCc1ccccc1`: in the assay with Rattus norvegicus [1], the Agonist activity result is “inactive”. Further, the ED50 with Rattus norvegicus [2] worked out at 0.9 µmol/kg. In the assay with Rattus norvegicus [2], `CCCCOC(=O)CCNC(=O)[C@H](Cc1c[nH]c2ccccc12)NC(=O)[C@@H](CCCC)NC(=O)[C@H](CC(=O)O)NC(=O)CCc1ccccc1` returned an ED50 of 10.4 µmol/kg.

For the molecule `CCCCOC(=O)CCNC(=O)[C@H](Cc1c[nH]c2ccccc12)NC(=O)[C@@H](CCCC)NC(=O)[C@H](CC(=O)O)NC(=O)NCc1ccccc1`, the Agonist activity entry in the assay on Rattus norvegicus [1] was “inactive”.

The values are drawn from ChEMBL document CHEMBL1123729, “Synthesis and biological activity of partially modified retro-inverso pseudopeptide derivatives of the C-terminal tetrapeptide of gastrin” (J Med Chem, 1987).
